Source: patent publication US9611248B2, “Chemical compounds” (Syngenta Participations AG, priority 2013, dated 2017)

system: a variety of test species; test: Post-emergence herbicidal activity; format: in vivo; set-up: key to ABUTH (Abutilon theophrasti) damage score / AMARE (Amaranthus retroflexus) damage score / ALOMY (Alopecurus myosuroides) damage score / ECHCG (Echinochloa crus-galli) damage score / ZEAMX (Zea mays) damage score / SOLNI (Solanum nigrum) damage score: 0 = no damage to plant, 5 = total damage to plant; conditions: rate 1000 g/ha, evaluated after 13 days
Method: Seeds of a variety of test species were sown in standard soil in pots. After 8 days cultivation (post-emergence) under controlled conditions in a glasshouse (at 24/16° C., day/night; 14 hours light; 65% humidity), the plants were sprayed with an aqueous spray solution derived from the formulation of the technical active ingredient in acetone/water (50:50) solution containing 0.5% Tween 20 (polyoxyethelyene sorbitan monolaurate, CAS RN 9005-64-5). The test plants were then grown in a glasshouse under controlled conditions (at 24/16° C., day/night; 14 hours light; 65% humidity) and watered twice daily. After 13 days, the test was evaluated (5=total damage to plant; 0=no damage to plant, NC=not captured).

Row | Structure (SMILES) | ABUTH (Abutilon theophrasti) damage score | ALOMY (Alopecurus myosuroides) damage score | AMARE (Amaranthus retroflexus) damage score | ECHCG (Echinochloa crus-galli) damage score | SETFA (Setaria faberi) damage score | ZEAMX (Zea mays) damage score
1 | COC1=C(C)C(=O)N(c2cc(C(C)(C)F)c(Cl)nn2)C1O (stereo not drawn) [BD8] | 5 | 4 | 5 | 5 | 5 | 2
2 | COC1=C(C)C(=O)N(c2cc(C(F)(F)F)c(-c3ccccc3)cn2)C1O (stereo not drawn) [AD128] | 5 | 3 | 5 | 5 | 5 | 2
3 | CCc1cc(N2C(=O)C(C)=C(Cl)C2O)ncc1Br (stereo not drawn) [AA50] | 3 | 2 | 2 | 3 | 3 | 1
4 | C=CCCOc1cnc(N2C(=O)C(C)=C(OC)C2O)cc1C(F)(F)F (stereo not drawn) [AD73] | 5 | 4 | 5 | 4 | 5 | 1
5 | COC1=C(C)C(=O)N(c2cc(C(C)F)ccn2)C1O (stereo not drawn) [AD18] | 4 | 3 | 1 | 4 | 1 | 0
6 | COC1=C(C)C(=O)N(c2ncc(Br)c(C(F)(F)F)c2Br)C1O (stereo not drawn) [AD29] | 0 | 1 | 0 | 0 | 0 | 1
7 | COC1=C(C)C(=O)N(c2nccc(C(F)(F)F)c2F)C1O (stereo not drawn) [AD7] | 5 | 5 | 5 | 5 | 5 | 3
8 | CCc1cc(N2C(=O)C(C)=C(OC)C2O)ncc1C=C(C)C (stereo not drawn) [AD71] | 4 | 2 | 5 | 3 | 5 | 2
9 | CCc1cc(N2C(=O)C(C)=C(OC)C2O)ncc1-c1ccccc1F (stereo not drawn) [AD105] | 5 | 2 | 5 | 3 | 4 | 1
10 | COC1=C(C)C(=O)N(c2cc(C)c(-c3ccsc3)cn2)C1O (stereo not drawn) [AD61] | 5 | 1 | 5 | 3 | 4 | 1
11 | CC1=C(OCC(F)(F)F)C(O)N(c2cc(C(F)(F)F)ccn2)C1=O (stereo not drawn) [AD44, 2-hydroxy-4-methyl-3-(2,2,2-trifluoroethoxy)-1-[4-(trifluoromethyl)-2-pyridyl]-2H-pyrrol-5-one] | 5 | 3 | 5 | 4 | 5 | 1
12 | COC1=C(C)C(=O)N(c2cc(C)c(-c3ccc(C)c([N+](=O)[O-])c3)cn2)C1O (stereo not drawn) [AD119] | 2 | 2 | 5 | 1 | 1 | 0
